Source: patent US10047058B2, “Compounds and methods for inhibiting vacuolar ATPase” (University of Southern California, priority 2015, dated 2018)

What was measured:
ATP6V1A = ATP6V1A (Homo sapiens, UniProt P38606)
[1] = test system: MB231 breast cancer cells; conditions: cited from earlier work
mammalian cells = conditions: cited from earlier work

Sequence of ATP6V1A (P38606 whole entry): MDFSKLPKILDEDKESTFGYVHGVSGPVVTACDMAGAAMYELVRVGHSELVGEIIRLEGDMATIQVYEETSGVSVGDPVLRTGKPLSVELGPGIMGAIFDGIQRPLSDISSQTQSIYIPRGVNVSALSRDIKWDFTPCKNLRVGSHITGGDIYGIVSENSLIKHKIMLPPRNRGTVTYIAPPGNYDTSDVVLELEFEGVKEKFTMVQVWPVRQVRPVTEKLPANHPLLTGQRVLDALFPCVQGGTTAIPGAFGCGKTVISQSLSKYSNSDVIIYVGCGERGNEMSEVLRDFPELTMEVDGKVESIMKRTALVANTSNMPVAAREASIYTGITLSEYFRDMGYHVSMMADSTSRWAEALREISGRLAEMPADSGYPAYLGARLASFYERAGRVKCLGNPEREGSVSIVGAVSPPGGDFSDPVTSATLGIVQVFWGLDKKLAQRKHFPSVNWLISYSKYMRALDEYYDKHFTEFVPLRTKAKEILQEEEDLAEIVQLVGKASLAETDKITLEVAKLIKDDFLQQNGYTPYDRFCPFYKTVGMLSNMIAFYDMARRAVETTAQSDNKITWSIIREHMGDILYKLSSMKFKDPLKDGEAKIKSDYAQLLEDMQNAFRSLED

O=C(CCl)Nc1ccc2c(Nc3ccccc3)ncnc2c1 [Formula I]
IC50 (ATP6V1A): ~30 nM | inhibition of probe QZ1 labeling (screen of electrophilic quinazolines) (ATP6V1A; 1 μM, cells pretreated with drug 30 min, then probe for 30 min): showed potent inhibition

CO/C1=C\C(C)=C\[C@@H](C)[C@@H](O)[C@@H](C)C/C(C)=C/C=C/[C@H](OC)[C@@H]([C@@H](C)[C@@H](O)[C@H](C)[C@@]2(O)C[C@@H](O)[C@H](C)[C@@H](C(C)C)O2)OC1=O [bafilomycin]
effect on invasiveness of cancer cells [1]: significantly inhibited

archazolid
concentration that blocks growth of mammalian cells (mammalian cells): subnanomolar
